ChEMBL document CHEMBL5360618, “PepScaf: Harnessing Machine Learning with In Vitro Selection toward De Novo Macrocyclic Peptides against IL-17C/IL-17RE Interaction” (J Med Chem, 2023)
Positions of bridges follow the written chain, without caps; N, C: chain ends. Residues, ends and D or L forms follow the SMILES beside them.

These compounds were tested against T1, IL17-RE-IL-17C (Homo sapiens, UniProt Q8NFR9+Q9P0M4) (assay: Inhibition of IL-17C/IL-17RE interaction (unknown origin) incubated for 1.5 hrs by ELISA method).
T1 sequence (Q9P0M4 whole entry): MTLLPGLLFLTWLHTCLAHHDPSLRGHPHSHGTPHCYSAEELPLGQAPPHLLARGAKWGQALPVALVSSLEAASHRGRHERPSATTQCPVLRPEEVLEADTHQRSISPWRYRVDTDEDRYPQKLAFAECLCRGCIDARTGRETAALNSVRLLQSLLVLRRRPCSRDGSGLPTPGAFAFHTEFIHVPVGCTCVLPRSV
T1 sequence (Q8NFR9 whole entry): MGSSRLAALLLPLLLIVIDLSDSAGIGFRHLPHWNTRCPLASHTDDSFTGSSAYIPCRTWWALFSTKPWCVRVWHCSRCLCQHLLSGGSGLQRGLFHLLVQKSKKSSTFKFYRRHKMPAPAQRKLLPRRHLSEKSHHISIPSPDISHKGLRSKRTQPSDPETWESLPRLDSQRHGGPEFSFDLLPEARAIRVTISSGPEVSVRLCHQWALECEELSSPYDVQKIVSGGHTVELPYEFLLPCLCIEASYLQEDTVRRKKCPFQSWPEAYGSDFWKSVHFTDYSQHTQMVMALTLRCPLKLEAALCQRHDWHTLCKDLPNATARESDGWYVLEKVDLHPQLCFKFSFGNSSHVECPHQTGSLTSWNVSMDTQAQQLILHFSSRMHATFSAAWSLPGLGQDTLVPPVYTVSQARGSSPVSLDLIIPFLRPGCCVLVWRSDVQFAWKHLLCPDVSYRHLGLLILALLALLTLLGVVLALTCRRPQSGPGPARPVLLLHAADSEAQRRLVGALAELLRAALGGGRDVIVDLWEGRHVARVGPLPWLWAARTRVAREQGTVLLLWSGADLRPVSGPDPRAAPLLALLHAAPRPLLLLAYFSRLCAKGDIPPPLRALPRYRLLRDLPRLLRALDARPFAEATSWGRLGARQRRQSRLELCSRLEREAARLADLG
Format: protein-complex assay
`CC[C@H](C)[C@@H]1NC(=O)[C@H](CCC(=O)O)NC(=O)CNC(=O)[C@H](Cc2ccc(O)cc2)NC(=O)[C@H](CC(C)C)NC(=O)[C@H]([C@@H](C)CC)NC(=O)[C@H](CCCNC(=N)N)NC(=O)[C@H](Cc2ccc(O)cc2)NC(=O)[C@H](Cc2ccc(O)cc2)NC(=O)[C@H](Cc2c[nH]cn2)NC(=O)[C@H](Cc2c[nH]cn2)NC(=O)[C@H](Cc2ccc(O)cc2)NC(=O)CSC[C@@H](C(=O)NCC(N)=O)NC(=O)CNC1=O` ({CH2CO}-YHHYYRILYGEIGCG-NH2; thioether N-14) was tested, and the IC50 was 422 nM. For `CC[C@H](C)[C@@H]1NC(=O)[C@H](CCCNC(=N)N)NC(=O)[C@H](Cc2ccc(O)cc2)NC(=O)[C@H](Cc2ccc(O)cc2)NC(=O)[C@H](Cc2c[nH]cn2)NC(=O)[C@H](Cc2c[nH]cn2)NC(=O)[C@H](Cc2ccc(O)cc2)NC(=O)CSC[C@@H](C(=O)NCC(N)=O)NC(=O)[C@H](C)NC(=O)[C@H](CC(C)C)NC(=O)[C@H](CCC(=O)O)NC(=O)CNC(=O)[C@H](Cc2ccc(O)cc2)NC(=O)[C@H](CC(C)C)NC1=O` ({CH2CO}-YHHYYRILYGELACG-NH2; thioether N-14), the IC50 was 865 nM. `CC[C@H](C)[C@@H]1NC(=O)[C@H](CCCNC(=N)N)NC(=O)[C@H](Cc2ccc(O)cc2)NC(=O)[C@H](Cc2ccc(O)cc2)NC(=O)[C@H](Cc2c[nH]cn2)NC(=O)[C@H](Cc2c[nH]cn2)NC(=O)[C@H](Cc2ccc(O)cc2)NC(=O)CSC[C@@H](C(=O)NCC(N)=O)NC(=O)CNC(=O)[C@H](CC(C)C)NC(=O)[C@H](CCC(=O)O)NC(=O)CNC(=O)[C@H](Cc2ccc(O)cc2)NC(=O)[C@H](CC(C)C)NC1=O` ({CH2CO}-YHHYYRILYGELGCG-NH2; thioether N-14) was tested, and the IC50 was 166 nM. With `CC[C@H](C)[C@@H]1NC(=O)[C@H](CCCNC(=N)N)NC(=O)[C@H](Cc2ccc(O)cc2)NC(=O)[C@H](Cc2ccc(O)cc2)NC(=O)[C@H](Cc2cnc[nH]2)NC(=O)[C@H](Cc2cnc[nH]2)NC(=O)[C@H](Cc2ccc(O)cc2)NC(=O)CSC[C@@H](C(=O)NCC(N)=O)NC(=O)CNC(=O)[C@@H]2CCCN2C(=O)[C@H](CCC(=O)O)NC(=O)CNC(=O)[C@H](Cc2ccc(O)cc2)NC(=O)[C@H](CC(C)C)NC1=O` ({CH2CO}-YHHYYRILYGEPGCG-NH2; thioether N-14) the IC50 was > 30000 nM. Compound `CC[C@H](C)[C@@H]1NC(=O)[C@H](CCCNC(=N)N)NC(=O)[C@H](Cc2ccc(O)cc2)NC(=O)[C@H](Cc2ccc(O)cc2)NC(=O)[C@H](Cc2c[nH]cn2)NC(=O)[C@H](Cc2c[nH]cn2)NC(=O)[C@H](Cc2ccc(O)cc2)NC(=O)CSC[C@@H](C(=O)NCC(N)=O)NC(=O)CNC(=O)[C@H](CC(C)C)NC(=O)CNC(=O)CNC(=O)[C@H](Cc2ccc(O)cc2)NC(=O)[C@H](CC(C)C)NC1=O` ({CH2CO}-YHHYYRILYGGLGCG-NH2; thioether N-14) has an IC50 of 211 nM. `CC[C@H](C)[C@@H]1NC(=O)[C@H](CCCNC(=N)N)NC(=O)[C@H](Cc2ccc(O)cc2)NC(=O)[C@H](Cc2ccc(O)cc2)NC(=O)[C@H](Cc2c[nH]cn2)NC(=O)[C@H](Cc2c[nH]cn2)NC(=O)[C@H](Cc2ccc(O)cc2)NC(=O)CSC[C@@H](C(=O)NCC(N)=O)NC(=O)CNC(=O)[C@H](CC(C)C)NC(=O)[C@H](C(C)C)NC(=O)CNC(=O)[C@H](Cc2ccc(O)cc2)NC(=O)[C@H](CC(C)C)NC1=O` ({CH2CO}-YHHYYRILYGVLGCG-NH2; thioether N-14) was tested, and the IC50 was 442 nM. Compound `CC[C@H](C)[C@@H]1NC(=O)[C@H](CCCNC(=N)N)NC(=O)[C@H](Cc2ccc(O)cc2)NC(=O)[C@H](Cc2ccc(O)cc2)NC(=O)[C@H](Cc2c[nH]cn2)NC(=O)[C@H](Cc2c[nH]cn2)NC(=O)[C@H](Cc2ccc(O)cc2)NC(=O)CSC[C@@H](C(=O)NCC(N)=O)NC(=O)CNC(=O)[C@H](CC(C)C)NC(=O)[C@H](CCC(=O)O)NC(=O)[C@H](CO)NC(=O)[C@H](Cc2ccc(O)cc2)NC(=O)[C@H](CC(C)C)NC1=O` ({CH2CO}-YHHYYRILYSELGCG-NH2; thioether N-14) has an IC50 of 1340 nM. `CC[C@H](C)[C@@H]1NC(=O)[C@H](CCCNC(=N)N)NC(=O)[C@H](Cc2ccc(O)cc2)NC(=O)[C@H](Cc2ccc(O)cc2)NC(=O)[C@H](Cc2c[nH]cn2)NC(=O)[C@H](Cc2c[nH]cn2)NC(=O)[C@H](Cc2ccc(O)cc2)NC(=O)CSC[C@@H](C(=O)NCC(N)=O)NC(=O)CNC(=O)[C@H](CC(C)C)NC(=O)[C@H](CCC(=O)O)NC(=O)CNC(=O)[C@H](Cc2ccc(O)cc2)NC(=O)[C@@H]2CCCN2C1=O` ({CH2CO}-YHHYYRIPYGELGCG-NH2; thioether N-14) was tested, and the IC50 was > 30000 nM. With `CC(C)C[C@@H]1NC(=O)[C@H](CCC(=O)O)NC(=O)CNC(=O)[C@H](Cc2ccc(O)cc2)NC(=O)[C@H](CC(C)C)NC(=O)[C@H]([C@@H](C)O)NC(=O)[C@H](CCCNC(=N)N)NC(=O)[C@H](Cc2ccc(O)cc2)NC(=O)[C@H](Cc2ccc(O)cc2)NC(=O)[C@H](Cc2c[nH]cn2)NC(=O)[C@H](Cc2c[nH]cn2)NC(=O)[C@H](Cc2ccc(O)cc2)NC(=O)CSC[C@@H](C(=O)NCC(N)=O)NC(=O)CNC1=O` ({CH2CO}-YHHYYRTLYGELGCG-NH2; thioether N-14) the IC50 was 288 nM. Work on `CC(C)C[C@@H]1NC(=O)[C@H](CCC(=O)O)NC(=O)CNC(=O)[C@H](Cc2ccc(O)cc2)NC(=O)[C@H](CC(C)C)NC(=O)[C@H](C(C)C)NC(=O)[C@H](CCCNC(=N)N)NC(=O)[C@H](Cc2ccc(O)cc2)NC(=O)[C@H](Cc2ccc(O)cc2)NC(=O)[C@H](Cc2c[nH]cn2)NC(=O)[C@H](Cc2cnc[nH]2)NC(=O)[C@H](Cc2ccc(O)cc2)NC(=O)CSC[C@@H](C(=O)NCC(N)=O)NC(=O)CNC1=O` ({CH2CO}-YHHYYRVLYGELGCG-NH2; thioether N-14) yielded an IC50 of 414 nM. `CC[C@H](C)[C@@H]1NC(=O)[C@H](CO)NC(=O)[C@H](Cc2ccc(O)cc2)NC(=O)[C@H](Cc2ccc(O)cc2)NC(=O)[C@H](Cc2c[nH]cn2)NC(=O)[C@H](Cc2c[nH]cn2)NC(=O)[C@H](Cc2ccc(O)cc2)NC(=O)CSC[C@@H](C(=O)NCC(N)=O)NC(=O)CNC(=O)[C@H](CC(C)C)NC(=O)[C@H](CCC(=O)O)NC(=O)CNC(=O)[C@H](Cc2ccc(O)cc2)NC(=O)[C@H](CC(C)C)NC1=O` ({CH2CO}-YHHYYSILYGELGCG-NH2; thioether N-14) was tested, and the IC50 was 2520 nM. With `CC[C@H](C)[C@@H]1NC(=O)[C@H](Cc2c[nH]cn2)NC(=O)[C@H](Cc2ccc(O)cc2)NC(=O)CSC[C@@H](C(=O)NCC(N)=O)NC(=O)CNC(=O)[C@H](CC(C)C)NC(=O)[C@H](C)NC(=O)CNC(=O)[C@H](Cc2ccc(O)cc2)NC(=O)[C@H](CC(C)C)NC(=O)[C@H](CO)NC(=O)[C@H](C)NC(=O)[C@H](Cc2ccc(O)cc2)NC(=O)[C@H](Cc2ccc(O)cc2)NC1=O` ({CH2CO}-YHIYYASLYGALGCG-NH2; thioether N-14) the IC50 was 9.2 nM. Work on `CC[C@H](C)[C@@H]1NC(=O)[C@H](Cc2c[nH]cn2)NC(=O)[C@H](Cc2ccc(O)cc2)NC(=O)CSC[C@@H](C(=O)NCC(N)=O)NC(=O)CNC(=O)[C@H](CC(C)C)NC(=O)[C@H](CC(=O)O)NC(=O)CNC(=O)[C@H](Cc2ccc(O)cc2)NC(=O)[C@H](CC(C)C)NC(=O)[C@H](CO)NC(=O)[C@H](C)NC(=O)[C@H](Cc2ccc(O)cc2)NC(=O)[C@H](Cc2ccc(O)cc2)NC1=O` ({CH2CO}-YHIYYASLYGDLGCG-NH2; thioether N-14) yielded an IC50 of 1.4 nM. For `CC[C@H](C)[C@@H]1NC(=O)[C@H](Cc2c[nH]cn2)NC(=O)[C@H](Cc2ccc(O)cc2)NC(=O)CSC[C@@H](C(=O)NCC(N)=O)NC(=O)CNC(=O)[C@H](CC(C)C)NC(=O)[C@H](CCCCN)NC(=O)CNC(=O)[C@H](Cc2ccc(O)cc2)NC(=O)[C@H](CC(C)C)NC(=O)[C@H](CO)NC(=O)[C@H](C)NC(=O)[C@H](Cc2ccc(O)cc2)NC(=O)[C@H](Cc2ccc(O)cc2)NC1=O` ({CH2CO}-YHIYYASLYGKLGCG-NH2; thioether N-14), the IC50 was 4.2 nM. For `CC[C@H](C)[C@@H]1NC(=O)[C@H](Cc2c[nH]cn2)NC(=O)[C@H](Cc2ccc(O)cc2)NC(=O)CSC[C@@H](C(=O)NCC(N)=O)NC(=O)CNC(=O)[C@H](CC(C)C)NC(=O)[C@H](CC(C)C)NC(=O)CNC(=O)[C@H](Cc2ccc(O)cc2)NC(=O)[C@H](CC(C)C)NC(=O)[C@H](CO)NC(=O)[C@H](C)NC(=O)[C@H](Cc2ccc(O)cc2)NC(=O)[C@H](Cc2ccc(O)cc2)NC1=O` ({CH2CO}-YHIYYASLYGLLGCG-NH2; thioether N-14), the IC50 was 12 nM. Compound `CC[C@H](C)[C@@H]1NC(=O)[C@H](Cc2c[nH]cn2)NC(=O)[C@H](Cc2ccc(O)cc2)NC(=O)CSC[C@@H](C(=O)NCC(N)=O)NC(=O)CNC(=O)[C@H](CC(C)C)NC(=O)[C@H](CC(N)=O)NC(=O)CNC(=O)[C@H](Cc2ccc(O)cc2)NC(=O)[C@H](CC(C)C)NC(=O)[C@H](CO)NC(=O)[C@H](C)NC(=O)[C@H](Cc2ccc(O)cc2)NC(=O)[C@H](Cc2ccc(O)cc2)NC1=O` ({CH2CO}-YHIYYASLYGNLGCG-NH2; thioether N-14) has an IC50 of 4.4 nM. With `CC[C@H](C)[C@@H]1NC(=O)[C@H](Cc2c[nH]cn2)NC(=O)[C@H](Cc2ccc(O)cc2)NC(=O)CSC[C@@H](C(=O)NCC(N)=O)NC(=O)CNC(=O)[C@H](CC(C)C)NC(=O)[C@H](Cc2c[nH]cn2)NC(=O)CNC(=O)[C@H](Cc2ccc(O)cc2)NC(=O)[C@H](CC(C)C)NC(=O)[C@H](CO)NC(=O)[C@H](Cc2ccccc2)NC(=O)[C@H](Cc2ccc(O)cc2)NC(=O)[C@H](Cc2ccc(O)cc2)NC1=O` ({CH2CO}-YHIYYFSLYGHLGCG-NH2; thioether N-14) the IC50 was 6.2 nM.
